Reference: patent US7517902B2, “Substituted indazoles, compositions containing the same, and the preparation and use thereof” (Aventis Pharma S.A., priority 2004, dated 2009)

Assays:
Aurora2 = target: T1, Aurora2 (Homo sapiens, UniProt O14965); assay: Aurora2 enzyme assay, NuMA substrate phosphorylation (Flashplate); format: biochemical; settings: read-out: IC 50 Aurora2
T1 construct: Aurora 2: whole recombinant protein comprising an N-terminal histidine tail; His tag (histidine tail) (N); made in house; host or cells: E. coli
T1 sequence (O14965 1-403): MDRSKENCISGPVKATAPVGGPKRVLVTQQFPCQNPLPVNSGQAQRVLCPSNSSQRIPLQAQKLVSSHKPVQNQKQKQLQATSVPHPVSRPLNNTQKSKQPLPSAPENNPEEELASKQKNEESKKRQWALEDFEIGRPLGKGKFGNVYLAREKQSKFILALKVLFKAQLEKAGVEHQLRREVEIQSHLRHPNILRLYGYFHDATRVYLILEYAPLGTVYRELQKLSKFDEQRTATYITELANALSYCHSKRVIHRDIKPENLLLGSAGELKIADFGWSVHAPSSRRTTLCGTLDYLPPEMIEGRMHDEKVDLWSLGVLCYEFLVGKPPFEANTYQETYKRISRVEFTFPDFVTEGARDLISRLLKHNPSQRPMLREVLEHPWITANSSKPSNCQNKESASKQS
Protocol: The inhibitory effect of compounds with respect to the kinases Aurora1 and Aurora2 is determined by an enzyme assay employing radioactivity detection.
The kinase activity of Aurora 1 and Aurora 2 is evaluated by the phosphorylation of the substrate Numa-histidine in the presence of radiolabeled ATP ([^33P]ATP), using 96-well Flashplate plates in which nickel chelate is fixed to the surface of the microplate. The amount of ^33P phosphate incorporated in the NuMA substrate is proportional to the activity of the enzyme Aurora1 or Aurora2.
The proteins are produced in the protein production laboratory of the SanofiAventis group.
Aurora 2: whole recombinant protein comprising an N-terminal histidine tail, expressed in E. coli and purified to more than 82%.
NuMA (nuclear protein that associates with the mitotic apparatus) fragment of 424 amino acids, expressed in E. coli, whose N-terminal end has been labeled with histidine and used as a substrate for the two Aurora enzymes.
The microplates used are 96-well Flash-Plate plates with nickel chelate (Perkin Elmer, model SMP107).
The products for evaluation are incubated in a reaction volume of 100 μL per well in the presence of 10 nM of Aurora 1 or Aurora 2, 500 nM of NuMA substrate in a buffer composed of 50 mM of Tris/HCl (pH 7.5), 50 mM NaCl, 5 mM MgCl2 (Aurora-B) or 10 mM MgCl2 (Aurora-A) and 1 mM of DTT, at 37° C.
In each well, 80 μL of the enzyme/substrate incubation buffer are distributed, followed by 10 μL of the product to be evaluated, in variable concentrations. The reaction is initiated by adding 1 μM of final ATP containing 0.2 μCi of [^33P]ATP (10 μL). After 30 minutes of incubation, the reaction is terminated by simply removing the reaction buffer and each well is washed twice with 300 μl of the Tris/HCl buffer. The radioactivity is then measured in each well by means of a scintillation apparatus, Packard, Top count model.
The control enzyme activity of Aurora is expressed by the number of counts per minute obtained within 30 minutes, after deduction of the background noise (reaction mixture not containing the enzyme). The evaluation of the various test products is expressed in percentage inhibition of the Aurora activity relative to the control.

human Tie2 = target: T2, human Tie2 (Homo sapiens, UniProt Q02763); assay: Tie2 assay of PLC phosphorylation (FlashPlate); format: biochemical; settings: read-out: IC 50 TIE2
T2 construct: amino acids of the intracellular domain 776-1124; made in house
T2 sequence (Q02763 776-1124): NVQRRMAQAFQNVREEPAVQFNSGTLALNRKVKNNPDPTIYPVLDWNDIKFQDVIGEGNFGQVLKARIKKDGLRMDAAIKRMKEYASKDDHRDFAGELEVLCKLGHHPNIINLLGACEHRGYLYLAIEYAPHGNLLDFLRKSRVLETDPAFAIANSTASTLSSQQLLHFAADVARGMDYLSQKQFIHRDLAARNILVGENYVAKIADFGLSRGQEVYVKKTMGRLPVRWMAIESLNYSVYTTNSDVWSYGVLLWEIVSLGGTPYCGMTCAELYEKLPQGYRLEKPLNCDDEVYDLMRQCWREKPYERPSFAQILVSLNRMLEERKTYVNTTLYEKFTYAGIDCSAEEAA
Protocol: The coding sequence of human Tie2, corresponding to the amino acids of the intracellular domain 776-1124, was generated by PCR, using the cDNA isolated from human placenta as a model. This sequence was introduced into a baculovirus expression vector pFastBacGT in the form of a GST fusion protein.
The inhibitory effect of the molecules is determined in an assay of PLC phosphorylation by Tie2 in the presence of GST-Tie2 purified to approximately 80% homogeneity. The substrate is composed of the SH2-SH3 fragments of PLC expressed in the form of a GST fusion protein.
The kinase activity of Tie2 is measured in a 20 mM MOPS buffer, pH 7.2, containing 10 mM MgCl2, 10 mM MnCl2, 1 mM DTT, 10 mM of glycerol-phosphate. In a 96-well FlashPlate plate, kept on ice, a reaction mixture is deposited which is composed of 70 μl of kinase buffer containing 100 ng of GST-Tie2 enzyme per well. Subsequently 10 μl of the test molecule diluted to a concentration of 10% maximum in DMvSO are added. For a given concentration, each measurement is carried out in quadruplicate. The reaction is initiated by adding 20 μl of solution containing 2 μg of GST-PLC, 2 μM of cold ATP and 1 μCi of ^33P[ATP]. After 1 hour of incubation at 37° C., the reaction is terminated by adding 1 volume (100 μl) of 200 mM EDTA. Following removal of the incubation buffer, the wells are washed three times with 300 μl of PBS. The radioactivity is measured on a Wallac MicroBeta 1450.
The inhibition of Tie2 activity is calculated and expressed as a percentage inhibition relative to the control activity determined in the absence of compound.

human KDR enzyme = target: T3, human KDR enzyme (Homo sapiens, UniProt P35968); assay: KDR substrate phosphorylation assay (scintillation, 96-well plate); format: biochemical
T3 construct: The cytoplasmic domain of the human KDR enzyme was cloned in the form of a GST fusion; GST; made in house; host or cells: SF21 insect cells (baculovirus, pFastBac)
T3 sequence (P35968 786-1356 limits assumed): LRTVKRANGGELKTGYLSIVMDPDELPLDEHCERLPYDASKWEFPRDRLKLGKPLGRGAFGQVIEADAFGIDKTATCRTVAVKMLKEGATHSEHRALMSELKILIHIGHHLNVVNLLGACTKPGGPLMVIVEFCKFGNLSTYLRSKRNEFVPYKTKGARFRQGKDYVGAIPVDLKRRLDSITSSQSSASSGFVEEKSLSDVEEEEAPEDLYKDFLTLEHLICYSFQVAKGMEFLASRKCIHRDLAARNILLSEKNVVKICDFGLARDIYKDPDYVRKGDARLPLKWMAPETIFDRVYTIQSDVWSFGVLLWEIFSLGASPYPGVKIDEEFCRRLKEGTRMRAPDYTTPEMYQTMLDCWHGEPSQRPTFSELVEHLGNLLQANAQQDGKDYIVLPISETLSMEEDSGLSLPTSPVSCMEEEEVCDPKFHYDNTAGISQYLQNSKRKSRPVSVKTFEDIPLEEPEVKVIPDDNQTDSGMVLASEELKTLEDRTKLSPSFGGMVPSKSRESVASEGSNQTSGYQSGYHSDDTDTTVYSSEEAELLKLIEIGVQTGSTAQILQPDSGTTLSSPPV
Protocol: The inhibitory effect of the compounds is determined in an assay of substrate phosphorylation by the KDR enzyme in vitro using a scintillation technique (96-well plate, NEN).
The cytoplasmic domain of the human KDR enzyme was cloned in the form of a GST fusion into the baculovirus expression vector pFastBac. The protein was expressed in SF21 cells and purified to approximately 60% homogeneity.
The KDR kinase activity is measured in 20 mM MOPS, 10 mM MgCl2, 10 mM MnCl2, 1 mM DTT, 2.5 mM EGTA, 10 mM β-glycerophosphate, pH=7.2, in the presence of 10 mM MgCl2, 100 μM Na3VO4, 1 mM NaF. 10 μl of the compound are added to 70 μl of kinase buffer, containing 100 ng of KDR enzyme at 4° C. The reaction is triggered by adding 20 μl of solution containing 2 μg of substrate (SH2-SH3 fragment of PLCγ expressed in the form of a GST fusion protein), 2 μCi γ^33P[ATP] and 2 μM cold ATP. After 1 hour of incubation at 37° C., the reaction is stopped by adding 1 volume (100 μl) of 200 mM EDTA. The incubation buffer is withdrawn and the wells are washed three times with 300 μl of PBS. The radioactivity is measured in each well using a Top Count NXT radioactivity counter (Packard).
The background noise is determined by measuring the radioactivity in four different wells containing the radioactive ATP and the substrate alone.
A control for total activity is measured in four different wells containing all of the reagents (γ^33P-[ATP], KDR and PLCγ substrate), but in the absence of compound.
The inhibition of KDR activity with the compound of the invention is expressed in percentage inhibition of the control activity determined in the absence of compound.
The compound SU5614 (Calbiochem) (1 μM) is included in each plate as an inhibition control.

Compound	IC50 (Aurora2) [nM]	IC50 (human Tie2) [nM]	melting point [°C]	IC50 (human KDR enzyme) [nM]
O=C(Nc1ccc(-c2ccc3c(NC(=O)c4ccco4)n[nH]c3c2F)cc1)Nc1cc(C(F)(F)F)ccc1F [Example 17, 1-(4-{7-Fluoro-3-[(furan-2-yl)carbonylamino]-1H-indazol-6-yl}phenyl)-3-(2-fluoro-5-trifluoromethylphenyl)urea]	60	8	152 to 153	29
O=C(Nc1ccc(-c2ccc3c(NC(=O)c4ccccc4)n[nH]c3c2F)cc1)Nc1cc(C(F)(F)F)ccc1F [Example 18, 1-(4-{7-Fluoro-3-[phenylcarbonylamino]-1H-indazol-6-yl}phenyl)-3-(2-fluoro-5-trifluoromethylphenyl)urea]	346	26	206 to 207	77
